Laboratory results from the supplement of paper PMC9013687.
± gives the standard deviation of the averaged measurements.

How the values were obtained:
Danio rerio embryo [1] = system: Danio rerio embryo
Procedure: (§1)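 Zebrafish embryos (UFZ-OBI strain) were exposed from 2 hpf for 48 h (2 dpf) or 96 h (4 dpf) at 28 °C; spontaneous tail coiling was scored at 25 hpf. Morphological features from automated image analysis (FishInspector), heart rate and locomotor response were fitted with drc models. Quantal endpoints were dichotomised at 2.5 SD from controls and fitted with a log-logistic model; heart rate, pigmentation and STC were normalised to the replicate control mean. Betamethasone was tested as betamethasone dipropionate, diflorasone as diflorasone diacetate.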

Danio rerio embryo [2] = conditions: exposure time: 4 dpf
Procedure: as §1

Danio rerio embryo [3] = assay: EC50 Curvature_Increase; conditions: exposure time: 2 dpf
Procedure: as §1

Danio rerio embryo [4] = assay: EC50 Body length_Decrease
Procedure: as §1

Danio rerio embryo [5] = assay: EC50 Bladder size_Decrease; conditions: exposure time: 4 dpf
Procedure: as §1

Danio rerio embryo [6] = assay: EC50 Pericard size_Increase
Procedure: as §1

Danio rerio embryo [7] = assay: EC50 Yolk sac size_Increase; conditions: exposure time: 4 dpf
Procedure: as §1

Danio rerio embryo [8] = assay: EC50 Eye-jaw distance_Decrease; conditions: exposure time: 4 dpf
Procedure: as §1

Danio rerio embryo [9] = assay: EC50 Otolith-eye distance_Decrease; conditions: exposure time: 4 dpf
Procedure: as §1

Danio rerio embryo [10] = assay: EC10 LMR dark; higher = less potent; conditions: exposure time: 4 dpf
Procedure: as §1

Danio rerio embryo [11] = assay: EC20 LMR dark; higher = less potent; conditions: exposure time: 4 dpf
Procedure: as §1

Danio rerio embryo [12] = assay: EC20 Any effect; higher = less potent
Procedure: as §1

Danio rerio embryo [13] = assay: EC10 Any effect; higher = less potent
Procedure: as §1

Danio rerio embryo [14] = assay: EC20 Eye size_Decrease; higher = less potent
Procedure: as §1

Danio rerio embryo [15] = assay: EC10 Curvature_Increase; higher = less potent; conditions: exposure time: 2 dpf
Procedure: as §1

Danio rerio embryo [16] = assay: EC20 Curvature_Increase; higher = less potent; conditions: exposure time: 2 dpf
Procedure: as §1

Danio rerio embryo [17] = assay: EC20 Body length_Decrease; higher = less potent
Procedure: as §1

Danio rerio embryo [18] = assay: EC10 Body length_Decrease; higher = less potent
Procedure: as §1

Danio rerio embryo [19] = assay: EC10 Bladder size_Decrease; higher = less potent; conditions: exposure time: 4 dpf
Procedure: as §1

Danio rerio embryo [20] = assay: EC20 Bladder size_Decrease; higher = less potent; conditions: exposure time: 4 dpf
Procedure: as §1

Danio rerio embryo [21] = assay: EC20 Yolk sac size_Increase; higher = less potent; conditions: exposure time: 4 dpf
Procedure: as §1

Danio rerio embryo [22] = assay: EC20 Pericard size_Increase; higher = less potent
Procedure: as §1

Danio rerio embryo [23] = assay: EC10 Yolk sac size_Increase; higher = less potent; conditions: exposure time: 4 dpf
Procedure: as §1

Danio rerio embryo [24] = assay: EC10 Pericard size_Increase; higher = less potent
Procedure: as §1

Danio rerio embryo [25] = assay: EC20 Eye-jaw distance_Decrease; higher = less potent; conditions: exposure time: 4 dpf
Procedure: as §1

Danio rerio embryo [26] = assay: EC10 Eye-jaw distance_Decrease; higher = less potent; conditions: exposure time: 4 dpf
Procedure: as §1

Danio rerio embryo [27] = assay: EC20 Otolith-eye distance_Decrease; higher = less potent; conditions: exposure time: 4 dpf
Procedure: as §1

Danio rerio embryo [28] = assay: EC10 Otolith-eye distance_Decrease; higher = less potent; conditions: exposure time: 4 dpf
Procedure: as §1

Danio rerio embryo [29] = assay: spontaneous tail coiling frequency (coils/min/embryo); higher = more spontaneous movement; conditions: 25 hpf
Procedure: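 Spontaneous tail coilings of zebrafish embryos exposed from 2 hpf were recorded at 24-25 hpf in 1-min videos and detected by a KNIME workflow from grey-value variance. Betamethasone was tested as the dipropionate, diflorasone as the diacetate.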

SMILES: CSc1nc2cc(Cl)c(Oc3cccc(Cl)c3Cl)cc2[nH]1 [Triclabendazole]
- EC50 Any effect (Danio rerio embryo [1]; exposure time: 2 dpf): 1340 nM
- EC50 Any effect (Danio rerio embryo [1]; exposure time: 4 dpf): 556 nM
- EC50 Pigmentation increase (Danio rerio embryo [1]; exposure time: 4 dpf): 690 nM
- EC50 STC decrease (Danio rerio embryo [1]; exposure time: 25 h): 76 nM
- EC50 LMR dark (Danio rerio embryo [2]): 403 nM
- EC50 Curvature Increase (Danio rerio embryo [3]): 1980 nM
- EC50 Body length Decrease (Danio rerio embryo [4]; exposure time: 2 dpf): 1270 nM
- EC50 Body length Decrease (Danio rerio embryo [4]; exposure time: 4 dpf): 1090 nM
- EC50 Bladder size Decrease (Danio rerio embryo [5]): 497 nM
- EC50 Pericard size Increase (Danio rerio embryo [6]; exposure time: 2 dpf): 2140 nM
- EC50 Pericard size Increase (Danio rerio embryo [6]; exposure time: 4 dpf): 782 nM
- EC50 Yolk sac size Increase (Danio rerio embryo [7]): 691 nM
- EC50 Eye-jaw distance Decrease (Danio rerio embryo [8]): 731 nM
- EC50 Otolith-eye distance Decrease (Danio rerio embryo [9]): 796 nM
- EC10 LMR dark (Danio rerio embryo [10]): 178 nM
- EC20 LMR dark (Danio rerio embryo [11]): 240 nM
- EC20 Any effect (Danio rerio embryo [12]; exposure time: 2 dpf): 1040 nM
- EC20 Any effect (Danio rerio embryo [12]; exposure time: 4 dpf): 411 nM
- EC10 Any effect (Danio rerio embryo [13]; exposure time: 2 dpf): 893 nM
- EC10 Any effect (Danio rerio embryo [13]; exposure time: 4 dpf): 344 nM
- EC20 Eye size Decrease (Danio rerio embryo [14]; exposure time: 2 dpf): 1420 nM
- EC20 Eye size Decrease (Danio rerio embryo [14]; exposure time: 4 dpf): 512 nM
- EC10 Curvature Increase (Danio rerio embryo [15]): 1710 nM
- EC20 Curvature Increase (Danio rerio embryo [16]): 1810 nM
- EC20 Body length Decrease (Danio rerio embryo [17]; exposure time: 2 dpf): 850 nM
- EC20 Body length Decrease (Danio rerio embryo [17]; exposure time: 4 dpf): 738 nM
- EC10 Body length Decrease (Danio rerio embryo [18]; exposure time: 2 dpf): 672 nM
- EC10 Body length Decrease (Danio rerio embryo [18]; exposure time: 4 dpf): 586 nM
- EC10 Bladder size Decrease (Danio rerio embryo [19]): 462 nM
- EC20 Bladder size Decrease (Danio rerio embryo [20]): 475 nM
- EC20 Yolk sac size Increase (Danio rerio embryo [21]): 533 nM
- EC20 Pericard size Increase (Danio rerio embryo [22]; exposure time: 2 dpf): 1010 nM
- EC20 Pericard size Increase (Danio rerio embryo [22]; exposure time: 4 dpf): 775 nM
- EC10 Yolk sac size Increase (Danio rerio embryo [23]): 458 nM
- EC10 Pericard size Increase (Danio rerio embryo [24]; exposure time: 2 dpf): 651 nM
- EC10 Pericard size Increase (Danio rerio embryo [24]; exposure time: 4 dpf): 772 nM
- EC20 Eye-jaw distance Decrease (Danio rerio embryo [25]): 708 nM
- EC10 Eye-jaw distance Decrease (Danio rerio embryo [26]): 695 nM
- EC20 Otolith-eye distance Decrease (Danio rerio embryo [27]): 622 nM
- EC10 Otolith-eye distance Decrease (Danio rerio embryo [28]): 538 nM
- spontaneous tail coiling frequency (Danio rerio embryo [29]; 0.139 µM): 0.65
- spontaneous tail coiling frequency (Danio rerio embryo [29]; 0.488205 µM): 1.35
- spontaneous tail coiling frequency (Danio rerio embryo [29]; 0.577 µM): 1.03
- spontaneous tail coiling frequency (Danio rerio embryo [29]; 0.732308 µM): 1.05
- spontaneous tail coiling frequency (Danio rerio embryo [29]; 0.835 µM): 1.49 ± 0.096
- spontaneous tail coiling frequency (Danio rerio embryo [29]; 1.086 µM): 1.13
- spontaneous tail coiling frequency (Danio rerio embryo [29]; 1.09846 µM): 0.655
- spontaneous tail coiling frequency (Danio rerio embryo [29]; 1.412 µM): 0.667 ± 0.38
- spontaneous tail coiling frequency (Danio rerio embryo [29]; 1.64769 µM): 1.2
- spontaneous tail coiling frequency (Danio rerio embryo [29]; 1.835 µM): 0.75 ± 0.38
- spontaneous tail coiling frequency (Danio rerio embryo [29]; 2.386 µM): 0.583 ± 0.35
- spontaneous tail coiling frequency (Danio rerio embryo [29]; 2.47154 µM): 0.315
- spontaneous tail coiling frequency (Danio rerio embryo [29]; 3.70731 µM): 0.06
